pIC50: −log10 of the molar value.
Tests used:
[1] = tested on: Sec61-mediated protein translocation; assay: In vitro translation and Sec61-dependent translocation into ER microsomes; format: biochemical, canine
From the text: (§1) In Vitro Membrane Translocation Assays.
(§2) Unless otherwise stated, all cDNAs are of human origin and as previously described: CytB5OPG2,16 GypC,17 ppαF (Saccharomyces cerevisiae),16 ppcecAOPG2 (Hyalophora cecropia),16 PPL (Bos Taurus),16 Sec61βOPG216 and VCAM1.17 Ii encodes residues 17 to 232 of the short form of human HLA class II histocompatibility antigen gamma chain (Ii; P04232, isoform 2). Linear DNA templates were generated by PCR and transcribed into RNA using T7 or SP6 polymerase (Promega).
(§3) In vitro translation and translocation into ER microsomes
(§4) Translation reactions (20 μL) were performed in nuclease-treated rabbit reticulocyte lysate (Promega) in the presence of EasyTag EXPRESS 35S Protein Labelling Mix containing [35S] methionine (Perkin Elmer) (0.533 MBq; 30.15 TBq/mmol). Amino acids minus methionine (Promega) were added to 25 µM each, […]
(§5) equivalent volume of DMSO, and nuclease-treated ER microsomes (from stock with OD280 = 44/mL) were added to 6.5% (v/v). Lastly, 10% volume of in vitro transcribed mRNA (from 200-1000 ng/μL stocks) encoding the relevant precursor protein was added and translation reactions performed for 20 min at 30°C. Following incubation with 0.1 mM puromycin for 5 min at 30°C to ensure translational termination and ribosome release, membrane-associated fractions were isolated by centrifugation through an 80 μL high-salt cushion (0.75 M sucrose, 0.5 M KOAc, 5 mM Mg(OAc)2, 50 mM Hepes-KOH, pH 7.9) at 100,000 x g for 10 min at 4°C in a TLA100 rotor (Beckmann). Membrane pellets were suspended directly in SDS (sodium dodecyl sulphate) sample buffer (0.02% bromophenol blue, 62.5 mM, 4% (w/v) SDS, 10% (v/v) glycerol, pH 7.6, 1 M dithiothreitol) and, where indicated, treated with 1,000 U of Endoglycosidase H (New England Biolabs) for 30 min at 37°C prior to analysis. All samples were denatured for 10 min at 70°C prior to resolution by SDS-PAGE (12% or 16% polyacrylamide gels, 120 V, 120 min), gels were fixed (20% MeOH, 10% AcOH) for 5 min, dried (BioRad gel dryer) for 2 h at 65°C and, following exposure to a phosphorimaging plate for 24-72 h, radiolabelled products were visualised using a Typhoon FLA-7000 (GE Healthcare).
(§6) Quantitative analysis of Ii membrane insertion was performed using AIDA v.5.0 (Raytest Isotopenmeβgeräte) whereby the ratio of the signal intensity for the 2Gly/0Gly forms was used as a read-out to estimate efficiency of integration into the ER membrane. This value was then expressed relative to the matched DMSO control in order to derive the mean relative ER insertion from three independent experiments (n=3). Statistical significance of the effectiveness of Ipom-F analogues (RM one-way ANOVA) was determined using Tukey’s multiple comparisons test. IC50 value estimates were determined using non-linear regression to fit data to a curve of variable slope (four parameters) using the least squares fitting method in which the bottom and top plateaus of the curve were defined as 0% and 100% respectively. The differences between the estimated IC50 values for the three compounds analysed were statistically significant (****) according to the extra-sum-of-squares F test. Statistical analyses and IC50 estimates were performed using Prism 7.0d (GraphPad) with statistical significance given as n.s., non - significant and ****, P < 0.0001.
(§7) U2-OS secNLuc-ATZ Secretion and Cell Viability Assays

[2] = target: T1, Sec61-mediated protein translocation (Canis lupus familiaris, UniProt P38377); assay: as above; format: biochemical, canine
T1 construct: ER microsomes derived from canine pancreas; from tissue; host or cells: canine pancreas ER microsomes (nuclease-treated)
From the text: as §1, §2, §3, §4, §5, §6, §7

HCT-116 cells = assay: Metabolic labelling of nascent proteins in HCT116 cells; format: cell-based, human
Procedure: Metabolic Labelling Assays in HCT116 Cells
HCT116 cells were counted using an automated cell counter (BioRad TC20) immediately prior to each experiment. 3 ml of HCT116 cells at a density of 0.166x10^6 cells/mL were seeded to 6-well plates (0.5x10^6 cells/well) and then incubated at 37 °C and 5% CO 2 for 24 h. The compounds were dissolved in DMSO to make drug stocks (10 mM). The stock solutions were diluted with DMEM high glucose culture medium lacking methionine and cysteine to make a fresh working solution immediately prior to each test. Cells were washed twice and 1ml of fresh DMEM lacking methionine and cysteine was added to each well.
Subsequently, the cells were treated with 250 µl of compound solutions in a total volume of 1 ,250 µl/well.
The plate was then incubated at 37 °C and 5% CO 2 for 30 min before 100 µCi 35S-labelled methionine/cysteine was added (Expre35s35s protein labelling mix). Plates were incubated for a further 30 min, then media collected and cells harvested by scraping after four washes in ice-cold PBS. Total protein was acquired by RIPA extraction from the cell pellet, cytoplasmic fraction was acquired by partial permeabilization of the outer cell membranes with 0.15% Digitonin followed by centrifugation, secreted proteins were acquired by TCA precipitation of the media. […]

T1 sequence (P38377 whole entry): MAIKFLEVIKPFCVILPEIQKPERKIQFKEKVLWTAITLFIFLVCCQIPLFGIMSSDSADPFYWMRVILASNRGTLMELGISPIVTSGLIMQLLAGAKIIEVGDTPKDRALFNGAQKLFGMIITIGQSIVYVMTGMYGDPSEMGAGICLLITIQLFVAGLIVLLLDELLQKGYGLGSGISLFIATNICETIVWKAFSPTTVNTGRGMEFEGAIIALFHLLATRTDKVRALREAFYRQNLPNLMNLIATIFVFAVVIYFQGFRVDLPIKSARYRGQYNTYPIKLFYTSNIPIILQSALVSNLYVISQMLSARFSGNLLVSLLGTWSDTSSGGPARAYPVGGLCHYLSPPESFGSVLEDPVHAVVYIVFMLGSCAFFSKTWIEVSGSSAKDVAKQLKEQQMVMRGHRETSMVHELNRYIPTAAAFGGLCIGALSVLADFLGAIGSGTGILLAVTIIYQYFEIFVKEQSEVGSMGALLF
T1 sequence (P60467 whole entry, further chain): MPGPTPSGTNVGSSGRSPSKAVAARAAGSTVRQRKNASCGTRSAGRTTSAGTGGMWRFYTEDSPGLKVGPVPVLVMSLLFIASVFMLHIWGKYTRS
T1 sequence (P60058 whole entry, further chain): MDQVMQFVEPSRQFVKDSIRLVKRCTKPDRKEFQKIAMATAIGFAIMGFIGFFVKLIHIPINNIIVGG

In the case of `C/C=C(\C)C(=O)O[C@@H]1[C@@H](O)[C@@H]2O[C@H]3[C@H](O[C@@H](CCCCC)CCCCCCC(=O)CCC(=O)OC[C@@H](O2)[C@H]1OC(=O)/C=C/c1ccccc1)O[C@H](C)[C@H](OC(C)=O)[C@@H]3O` [ipomoeassin F], the “membrane insertion of type III integral membrane protein glycophorin C” value [1] was “no effect”, the “in vitro integration of tail-anchored proteins (Sec61βOPG2, Cytb5OPG2)” value ([1]; Sec61-independent control substrates) was “unaffected” and the pIC50 [2] was about 7.30. For the same molecule, the “membrane insertion of type I and type II integral membrane proteins (VCAM1, Ii)” value [2] was “potently inhibits”, the “translocation of short secretory protein prepro-cecropin A” value [2] was “only a marginal impact” and the “translocation of secretory proteins bovine preprolactin and yeast prepro-alpha-factor” value ([2]; 1 μM compound) was “almost completely prevented”. For the same molecule, the “inhibition of Ii membrane insertion” value ([2]; type II membrane protein Ii, ER microsomes) was “strongly inhibit membrane insertion”, the “inhibition of production of secreted proteins” value (HCT-116 cells; HCT-116, 100 nM, 35S labelling) was “strong inhibition” and the “nascent protein biogenesis in total cellular lysates and cytosolic fractions” value (HCT-116 cells; HCT-116, 35S labelling) was “lack of inhibition”.
